These are literature values, as cited in patent US10596205B2, “Topical medicament for skin and mucosal injuries” (REV PHARMA Corp., priority 2018, dated 2020).

One series deals with S. Mutans biofilm. The following applies: for Biofilm biomass / Acidogenicity of the biofilm (pH drops): 10% sucrose then free fatty acid; for Acidogenicity of the biofilm (pH drops): compared with biofilms exposed to only 10% sucrose; for Enamel demineralization induced by sucrose: biofilms treated with the fatty acids.
The next series relates to biofilm. Conditions: animals, diet rich in the fatty acids.
Series [1] has as its system Gram-positive microorganisms. Conditions: in vitro study.

The structures appear in SMILES notation.

`CCCCCCCC/C=C\CCCCCCCC(=O)O` [oleic, oleic acid]: in the series on S. Mutans biofilm, the Biofilm biomass entry is “decline in biomass”, the “Acidogenicity of the biofilm (pH drops)” value is “lower pH drops” and the “Enamel demineralization induced by sucrose” value is “significantly lower reduction”.
In the case of `CCCCC/C=C\C/C=C\CCCCCCCC(=O)O` [linoleic, linoleic acid], the “Quantity of bacteria in biofilm” value in the series on biofilm is “lower quantity of bacteria”. Moreover, in the series on S. Mutans biofilm, the Biofilm biomass result is reported as “decline in biomass”, the “Acidogenicity of the biofilm (pH drops)” value is “lower pH drops” and the “Enamel demineralization induced by sucrose” value is listed as “significantly lower reduction”.
Regarding `CCCCCCCCCCCC(=O)O` [Lauric acid], the “Quantity of bacteria in biofilm” value in the series with biofilm is “lower quantity of bacteria”. Besides, the Bacteriostatic effect entry in series [1] is “highly bacteriostatic”.
